pEC50: −log10 of the molar value.

The target of one experiment is T1, STAT6 (Homo sapiens, UniProt P42226).
T1 construct: These cells express endogenous STAT6; host or cells: HeLa LgBiT clone 4.14
T1 sequence (P42226 1-847): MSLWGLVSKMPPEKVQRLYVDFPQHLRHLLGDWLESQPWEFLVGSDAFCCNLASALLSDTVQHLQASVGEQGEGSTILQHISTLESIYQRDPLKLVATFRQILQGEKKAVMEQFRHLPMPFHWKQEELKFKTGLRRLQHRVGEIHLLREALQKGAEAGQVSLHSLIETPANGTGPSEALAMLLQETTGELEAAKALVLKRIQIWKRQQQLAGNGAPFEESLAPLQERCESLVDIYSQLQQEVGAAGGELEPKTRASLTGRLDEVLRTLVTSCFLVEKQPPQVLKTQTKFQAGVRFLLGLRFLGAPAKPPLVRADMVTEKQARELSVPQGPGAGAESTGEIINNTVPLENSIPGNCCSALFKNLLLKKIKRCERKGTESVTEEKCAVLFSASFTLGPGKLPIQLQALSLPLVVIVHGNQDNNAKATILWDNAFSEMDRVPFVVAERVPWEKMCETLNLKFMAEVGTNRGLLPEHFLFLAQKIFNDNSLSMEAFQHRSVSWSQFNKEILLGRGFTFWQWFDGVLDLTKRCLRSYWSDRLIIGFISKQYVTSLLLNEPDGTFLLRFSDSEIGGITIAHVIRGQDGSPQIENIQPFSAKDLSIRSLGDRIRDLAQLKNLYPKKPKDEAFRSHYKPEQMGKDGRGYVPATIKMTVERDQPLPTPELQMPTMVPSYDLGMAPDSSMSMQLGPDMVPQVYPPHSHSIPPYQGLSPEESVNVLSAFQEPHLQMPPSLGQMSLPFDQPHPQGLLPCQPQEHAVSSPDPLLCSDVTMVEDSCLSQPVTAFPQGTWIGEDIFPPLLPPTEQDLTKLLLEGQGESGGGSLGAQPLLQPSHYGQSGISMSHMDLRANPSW
The experiment can be described thus: Stat6 Degrader Assay (HiBiT based, HeLa LgBiT clone 4.14). The format is cell-based. To be noted: HeLa LgBiT clone 4.14 HiBiT-STAT6, 4-24 h incubation; values given for compounds with >80% Emax; geometric mean; read-out: STAT6 degradation DC50. An outline of the steps:
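HeLa LgBiT clone 4.14 cells with CRISPR HiBiT-tagged endogenous STAT6, 5000 cells/well, compound dosed then incubated 4-24 h at 37° C, 5% CO2. Nano-Glo substrate added, 0.5 h, luminescence read as non-degraded STAT6. Terfenadine 50 μM (cell kill) defines 100% degradation.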
(The HiBiT peptide binds its large partner to form an active luciferase.)

The subject of experiment [1] is Eotaxin-3 release in human whole blood stimulated with IL-4. Briefly: Human Whole Blood Eotaxin-3 Assay (IL-4 stimulated eotaxin-3 release). The format is cell-based. To be noted: IL-4 stimulation, 48 h, values given for compounds with >80% Emax, geometric mean. In short, it runs like this: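 Lithium-heparin human whole blood preincubated 2 h at 37° C with 4-fold serially diluted compounds (0.5% DMSO), then stimulated with recombinant human IL-4 ([…]) for 48 h. Eotaxin-3 (CCL26) in supernatant quantified by MSD immunoassay.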

What is called DC50 is the concentration at which degradation of the target reaches its halfway point. One may read the pEC50 as the negative decadic logarithm of the EC50, by convention in mol/L. Read a low pEC50 as a large EC50. Take `CNc1cc(=O)n(-c2ccnc3c2cc(CN2CCC(c4c(F)cc(C(=O)N5CCC(CN6CCN(Cc7cc8c(cc7F)N([C@H]7CCC(=O)NC7=O)C(=O)C87CC7)CC6)CC5)cc4F)CC2)n3C)cc1F` (single isomer, unassigned) [Example 3u94]: the DC50 at STAT6 was 10.2 nM. This compound also had a pEC50 in experiment [1] of 7.62.
The corresponding values for `CNc1cc(=O)n(-c2ccnc3c2cc([C@H](C)N2CC=C(c4c(C)cc(C(=O)N5CCC(CN6CCN(c7ccc8c(c7)C7(CC7)C(=O)N8[C@H]7CCC(=O)NC7=O)CC6)CC5)cc4F)CC2)n3C)cc1F` (single isomer, unassigned) [Example 3u291] are 5.7 nM and 7.66.
The matching figures for `CNc1cc(=O)n(-c2ccnc3c2cc(CN2CCC(c4c(F)cc(C(=O)N5CCC(CN6CCN(Cc7ccc8c(c7)C7(CC7)C(=O)N8C7CCC(=O)NC7=O)C[C@@H]6C)CC5)cc4F)CC2)n3C)cc1F` (stereo partly drawn) [Example 3u219, 3-(5′-(((S)-4-((1-(3,5-difluoro-4-(1-((4-(5-fluoro-4-(methylamino)-2-oxopyridin-1 (2H)-yl)-1-methyl-1H-pyrrolo[2,3-b]pyridin-2-yl)methyl)piperidin-4-yl)benzoyl)piperidin-4-yl)methyl)-3-methylpiperazin-1-yl)methyl)-2′-oxospiro[cyclopropane-1,3′-indolin]-1′-yl)piperidine-2,6-dione]: 1.8 nM and 8.66.
The matching figures for `CNc1cc(=O)n(-c2ccnc3c2cc([C@H](C)N2CC=C(c4c(F)cc(C(=O)N5CCC(CN6CCN(Cc7ccc8c(c7)C(C)(C)C(=O)N8C7CCC(=O)NC7=O)C[C@@H]6C)CC5)cc4F)CC2)n3C)cc1F` (stereo partly drawn) [Example 3u9, 3-(5-(((S)-4-((1-(3,5-difluoro-4-(1-((S)-1-(4-(5-fluoro-4-(methylamino)-2-oxopyridin-1 (2H)-yl)-1-methyl-1H-pyrrolo[2,3-b]pyridin-2-yl)ethyl)-1,2,3,6-tetrahydropyridin-4-yl)benzoyl)-piperidin-4-yl)methyl)-3-methylpiperazin-1-yl)methyl)-3,3-dimethyl-2-oxoindolin-1-yl)piperidine-2,6-dione]: 3.8 nM and 8.31.
As to `CNc1cc(=O)n(-c2ccnc3c2cc([C@H](C)N2CC=C(c4c(C)cc(C(=O)N5CCC(CN6CCN(c7ccc8c(c7)C7(CC7)C(=O)N8C7CCC(=O)NC7=O)C[C@H]6C)CC5)cc4F)CC2)n3C)cc1F` (stereo partly drawn) [Example 3u295, 3-(5′-((R)-4-((1-(3-fluoro-4-(1-((S)-1-(4-(5-fluoro-4-(methylamino)-2-oxopyridin-1 (2H)-yl)-1-methyl-1H-pyrrolo[2,3-b]pyridin-2-yl)ethyl)-1,2,3,6-tetrahydropyridin-4-yl)-5-methylbenzoyl)piperidin-4-yl)methyl)-3-methylpiperazin-1-yl)-2′-oxospiro[cyclopropane-1,3′-indolin]-1′-yl)piperidine-2,6-dione], the DC50 on STAT6 worked out at 4.5 nM. Moreover, the pEC50 in experiment [1] is 7.72.
The matching figures for `CNc1cc(=O)n(-c2ccnc3c2cc([C@H](C)N2CC=C(c4c(C)cc(C(=O)N5CCC(CN6CCN(Cc7ccc8c(c7)C(C)(C)C(=O)N8C7CCC(=O)NC7=O)CC6)CC5)cc4F)CC2)n3C)cc1F` (stereo partly drawn) [Example 3u87, 3-(5-((4-((1-(3-fluoro-4-(1-((S)-1-(4-(5-fluoro-4-(methylamino)-2-oxopyridin-1 (2H)-yl)-1-methyl-1H-pyrrolo[2,3-b]pyridin-2-yl)ethyl)-1,2,3,6-tetrahydropyridin-4-yl)-5-methylbenzoyl)piperidin-4-yl)methyl)piperazin-1-yl)methyl)-3,3-dimethyl-2-oxoindolin-1-yl)piperidine-2,6-dione]: 3.5 nM and 7.82.
In the case of `CNc1ccn(-c2ccnc3c2cc(CN2CCC(c4c(F)cc(C(=O)N5CCC(CN6CCN(Cc7ccc8c(c7)C7(CC7)C(=O)N8[C@H]7CCC(=O)NC7=O)C[C@@H]6C)CC5)cc4F)CC2)n3C)c(=O)c1` (single isomer, unassigned) [Example 3u223], the DC50 on STAT6 is 0.9 nM. This compound had a pEC50 in experiment [1] of 8.89.
The matching figures for `CNc1ccn(-c2ccnc3c2cc([C@H](C)N2CC=C(c4c(C)cc(C(=O)N5CCC(CN6CCN(Cc7ccc8c(c7)C(C)(C)C(=O)N8[C@H]7CCC(=O)NC7=O)C[C@@H]6C)CC5)cc4F)CC2)n3C)c(=O)c1` (single isomer, unassigned) [Example 3u176]: 2.3 nM and 8.01.
The corresponding values for `CNc1cc(=O)n(-c2ccnc3c2cc([C@H](C)N2CC=C(c4c(C)cc(C(=O)N5CCC(CN6CCN(Cc7ccc8c(c7)n(C)c(=O)n8[C@@H]7CCC(=O)NC7=O)CC6)CC5)cc4F)CC2)n3C)cc1F` (single isomer, unassigned) [Example 3u15] are 0.8 nM and 8.66.
For the compound `Cc1cc(C(=O)N2CCC(CN3CCN(Cc4ccc5c(c4)n(C4CC4)c(=O)n5C4CCC(=O)NC4=O)CC3)CC2)cc(F)c1C1=CCN([C@@H](C)c2cc3c(-n4ccc5c(c4=O)CCN5)ccnc3n2C)CC1` (stereo partly drawn) [Example 3u140, 3-(3-cyclopropyl-5-((4-((1-(3-fluoro-5-methyl-4-(1-((S)-1-(1-methyl-4-(4-oxo-1,2,3,4-tetrahydro-5H-pyrrolo[3,2-c]pyridin-5-yl)-1H-pyrrolo[2,3-b]pyridin-2-yl)ethyl)-1,2,3,6-tetrahydropyridin-4-yl)benzoyl)piperidin-4-yl)methyl)piperazin-1-yl)methyl)-2-oxo-2,3-dihydro-1H-benzo[d]imidazol-1-yl)piperidine-2,6-dione], the half-maximal degradation concentration (DC50) at STAT6 turned out to be 1.4 nM. For the same compound, the pEC50 in experiment [1] is 9.00.
The matching figures for `C[C@H]1CN(Cc2ccc3c(c2)n(C)c(=O)n3C2CCC(=O)NC2=O)CCN1CC1CCN(C(=O)c2cc(F)c(C3CCN(Cc4cc5c(-n6ccc7c(c6=O)CCN7)ccnc5n4C)CC3)c(F)c2)CC1` (stereo partly drawn) [Example 3u311, 3-(5-(((S)-4-((1-(3,5-difluoro-4-(1-((1-methyl-4-(4-oxo-1,2,3,4-tetrahydro-5H-pyrrolo[3,2-c]pyridin-5-yl)-1H-pyrrolo[2,3-b]pyridin-2-yl)methyl)piperidin-4-yl)benzoyl)piperidin-4-yl)methyl)-3-methylpiperazin-1-yl)methyl)-3-methyl-2-oxo-2,3-dihydro-1H-benzo[d]imidazol-1-yl)piperidine-2,6-dione]: 0.5 nM and 9.40.
As for `C[C@H]1CN(Cc2ccc3c(c2)C(C)(C)C(=O)N3[C@@H]2CCC(=O)NC2=O)CCN1CC1CCN(C(=O)c2ccc(C3CCN([C@@H](C)c4cc5c(-n6ccc7c(c6=O)CCN7)ccnc5n4C)CC3)cc2)CC1` (single isomer, unassigned) [Example 3u186], at STAT6, the DC50 came to 3.5 nM. For the same compound, the pEC50 in experiment [1] was 8.34.
On to `C[C@H]1CN(Cc2ccc3c(c2)n(C2CC2)c(=O)n3C2CCC(=O)NC2=O)CCN1CC1CCN(C(=O)c2cc(F)c(C3CCN(Cc4cc5c(-n6ccc7c(c6=O)CCN7)ccnc5n4C)CC3)c(F)c2)CC1` (stereo partly drawn) [Example 3u106, 3-(3-cyclopropyl-5-(((S)-4-((1-(3,5-difluoro-4-(1-((1-methyl-4-(4-oxo-1,2,3,4-tetrahydro-5H-pyrrolo[3,2-c]pyridin-5-yl)-1H-pyrrolo[2,3-b]pyridin-2-yl)methyl)piperidin-4-yl)benzoyl)piperidin-4-yl)methyl)-3-methylpiperazin-1-yl)methyl)-2-oxo-2,3-dihydro-1H-benzo[d]imidazol-1-yl)piperidine-2,6-dione], for which the DC50 at STAT6 amounted to 2.3 nM. The compound further had a pEC50 in experiment [1] of 9.10.
The matching figures for `CNc1cc(=O)n(-c2ccnc3c2cc([C@H](C)N2CC=C(c4c(C)cc(C(=O)N(C)c5ccc(N6CCC(Cc7ccc8c(c7)n(C)c(=O)n8[C@@H]7CCC(=O)NC7=O)CC6)nc5)cc4F)CC2)n3C)cc1F` (single isomer, unassigned) [Example 3u243]: 0.3 nM and 9.40.

The values are drawn from US20250320206A1, “STAT6 DEGRADERS” (Gilead Sciences, Inc., priority 2024, published 2025).
